Our source for the EC50 values is US20100317685A1, “N-PHENYL-IMIDAZO[1,2-a]PYRIDINE-2-CARBOXAMIDE DERIVATIVES, THEIR PREPARATION AND THEIR THERAPEUTIC APPLICATION” (SANOFI-AVENTIS, priority 2008, published 2010).

For the test, the target named is T1, mouse Nurr1 receptor (Mus musculus, UniProt Q06219).
T1 construct: a cell line (N2A) endogenously expressing the mouse Nurr1 receptor; host or cells: Neuro-2A (N2A) mouse neuroblastoma cells stably transfected with 8NBRE-luciferase
Nature of the test: In vitro activity on N2A cells (NBRE-luciferase reporter). It is filed as cell-based. The note with it: N2A-8NBRE cells, 24 hours incubation. The protocol: Evaluation of the In Vitro Activity on N2A Cells
The activity of the compounds according to the invention was evaluated on a cell line (N2A) endogenously expressing the mouse Nurr1 receptor and stably transfected with the NOT binding response element (NBRE) coupled to the luciferase reporter gene. The EC50 values are between 0.01 and 1000 nM. The assays were carried out according to the procedure described below.
The Neuro-2A cell line comes from a standard commercial source (ATCC). The Neuro-2A clone was obtained, from a spontaneous tumour originating from an A albino mouse strain, by R. J Klebe et al. This Neuro-2A line is subsequently stably transfected with 8NBRE-luciferase. The N2A-8NBRE cells are cultured until confluence in 75 cm^2 culture flasks containing DMEM supplemented with 10% of foetal calf serum, 4.5 g/l of glucose and 0.4 mg/ml of geneticin. After a week of culture, the cells are recovered with 0.25% trypsin for 30 seconds and then resuspended in DMEM without phenol red, containing 4.5 g/l of glucose and 10% of Hyclone delipidized serum, and deposited into transparent-bottom 96-well white plates. The cells are deposited at a rate of 60 000 per well in 75 μl for 24 hours before the addition of the products. […] The plates are subsequently measured in a luminescence counter for microplates after having been sealed with an adhesive film. […]
Background: In a reporter assay the amount or activity of a reporter protein is the signal.

T1 sequence (Q06219 whole entry): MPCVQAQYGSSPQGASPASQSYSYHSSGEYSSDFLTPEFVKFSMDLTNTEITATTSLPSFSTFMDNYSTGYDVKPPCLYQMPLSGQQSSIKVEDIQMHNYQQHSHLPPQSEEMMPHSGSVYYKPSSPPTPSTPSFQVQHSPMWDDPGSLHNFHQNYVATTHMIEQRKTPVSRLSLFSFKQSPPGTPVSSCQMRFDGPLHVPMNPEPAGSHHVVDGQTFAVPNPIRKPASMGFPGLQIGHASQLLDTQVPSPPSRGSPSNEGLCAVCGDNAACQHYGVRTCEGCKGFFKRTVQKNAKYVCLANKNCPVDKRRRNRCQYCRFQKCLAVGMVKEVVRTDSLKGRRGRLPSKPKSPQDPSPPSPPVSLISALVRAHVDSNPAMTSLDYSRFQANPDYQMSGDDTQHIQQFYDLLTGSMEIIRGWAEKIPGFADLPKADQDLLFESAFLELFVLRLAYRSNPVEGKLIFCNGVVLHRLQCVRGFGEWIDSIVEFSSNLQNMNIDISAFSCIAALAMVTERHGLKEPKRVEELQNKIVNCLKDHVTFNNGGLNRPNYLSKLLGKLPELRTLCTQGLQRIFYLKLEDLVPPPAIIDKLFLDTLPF

The compound `N#Cc1cccc(NC(=O)c2cn3cc(-c4cccc(CO)c4)ccc3n2)c1` [Compound 5, N-(3-cyanophenyl)-6-[3-(hydroxymethyl)phenyl]imidazo[1,2-a]pyridine-2-carboxamide] gave an EC50 of 27 nM.
Under `N#Cc1c(F)cccc1NC(=O)c1cn2cc(-c3cccc(CO)c3)ccc2n1` [Compound 8, N-(2-cyano-3-fluorophenyl)-6-[3-(hydroxymethyl)phenyl]imidazo[1,2-a]pyridine-2-carboxamide] stands 0.4 nM.

For orientation: EC50 means the concentration at which the effect is half-maximal. Low readings indicate an effect from little substance, high ones a need for much substance.
